Reference: patent US20260250312A1, “ANTIBACTERIAL COMPOUNDS ELIMINATING DORMANT BACTERIAL CELLS” (UNIVERSITÉ D'AIX-MARSEILLE, priority 2022, published 2026)
Values after ≈ are worked out from the molar mass of the structure shown. Values joined by “and” are separate entries in the source; they are usually repeats but may differ in a detail not shown here. Equal entries are not always repeated. Where two headings read alike, the source gives them in different places. Marks after values point to notes of the source that are not given here.

Experiments:
[1] = system: Staphylococcus aureus (ATCC25923); assay: Microdilution MIC assay (CLSI-based), S. aureus; type: cell-based; details: 20 hours incubation at 35-37° C., MHB; for MIC: Staphylococcus aureus, ATCC25923, 20 h, read-out: Minimum inhibitory concentration S. aureus ATCC25923
Method in brief: (§1)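 Broth microdilution per modified CLSI guidelines in Mueller Hinton broth, 200 μL, inoculum ca. 5×10^5 CFU/mL; compounds tested as salts, twofold dilutions from 0.2 mg/mL, in triplicate. MIC determined from OD at 620 nm after incubation.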

[2] = system: Enterococcus faecalis (ATCC29212); assay: Microdilution MIC assay (CLSI-based), E. faecalis; type: cell-based; details: 20 hours incubation at 35-37° C., MHB; for MIC: Enterococcus faecalis, ATCC29212, 20 h, read-out: Minimum inhibitory concentration E. faecalis ATCC29212
Method in brief: as §1

[3] = system: Escherichia coli (ATCC28922); assay: Microdilution MIC assay (CLSI-based), E. coli; type: cell-based; details: 20 hours incubation at 35-37° C., MHB; for MIC: Escherichia coli, ATCC28922, 20 h, read-out: Minimum inhibitory concentration E. coli ATCC28922
Method in brief: as §1

[4] = system: Pseudomonas aeruginosa (ATCC27853); assay: Microdilution MIC assay (CLSI-based), P. aeruginosa; type: cell-based; details: 20 hours incubation at 35-37° C., MHB; for MIC: Pseudomonas aeruginosa, ATCC27853, 20 h, read-out: Minimum inhibitory concentration P. aeruginosa ATCC27853
Method in brief: as §1

[5] = system: CHO-K1 cells; assay: WST1 cytotoxicity test; type: cell-based, Chinese hamster
Method in brief: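 CHO-K1 cells pre-cultured 24 h, then exposed 24 h at 37 °C to increasing compound concentrations. Viability read as WST-1 formazan absorbance at 450 nm after 20 min; dose-response fitted by nonlinear regression.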

[6] = system: Escherichia coli (E. coli) persister cells; assay: Anti-persister activity test, persister cells; type: cell-based; details: for anti-persister activity (in words): E. coli persister cells, Table 8 conditions; for viability at 62.5 µM: read-out: Persister cell survival rate 96 h, concentration used 62.5 μM, 4 hours treatment; for Persister cell survival rate 96 h: 4 hours treatment; for viability at 125 µM: read-out: Persister cell survival rate 96 h, concentration used 125 μM, 4 hours treatment
Method: (§2) Anti-persister activity test: Escherichia coli (E. coli) persister cells were generated and isolated as described by MARQUES, C. N. H. et al. (Applied and Environmental Microbiology 2014, Vol. 80, No. 22, pp. 6976-6991). E. coli persister cells were compared to E. coli non-persister cells. 1 mL persister or non-persister bacteria culture was added in a 1.5 mL microtube with each of the compounds to be tested or ciprofloxacin as a […], and incubated at 37° C. with 160 rpm shaking for 4 hours. After 4 hours treatment with the compounds, the microtubes were centrifuged at 3,500g for 5 minutes and the pellets were resuspended in 1 mL of fresh drug free RM broth (10 g/L M9 salt, 2% casamino acids, 1 mM MgCl2, 1% glycerol). Resuspended bacteria were then plated over LB agar plates and incubated at 37° C. Bacterial colonies were enumerated after 24, 48 and 96 hours to estimate the survival rate.

[7] = system: E. coli non-persister cells; assay: Anti-persister activity test, non-persister cells; type: cell-based, Escherichia coli; details: for viability at 62.5 µM: read-out: Non-persister cell survival rate 96 h, concentration used 62.5 μM, 4 hours treatment; for Non-persister cell survival rate 96 h: 4 hours treatment; for viability at 125 µM: read-out: Non-persister cell survival rate 96 h, concentration used 125 μM, 4 hours treatment
Method: as §2

[8] = Cricetulus griseus, CHO-K1, 24 h, WST1, 24 hours at 37° C., read-out: IC50 CHO
[9] = Cricetulus griseus, CHO-K1, WST1, as printed in Table 8, read-out: Toxicity IC50 CHO
[10] = WST1, 24 hours at 37° C., read-out: IC50 CHO
[11] = WST1, Table 8, read-out: Toxicity IC50 CHO

SMILES | MIC [1] | MIC [2] | MIC [3] | MIC [4] | toxicity results (in words) [5] | IC50 [5, 8] | IC50 [5, 9] | anti-persister activity (in words) [6] | Minimum inhibitory concentration E. faecalis ATCC29212 [2] | Minimum inhibitory concentration E. coli ATCC28922 [3] | Minimum inhibitory concentration P. aeruginosa ATCC27853 [4] | IC50 CHO ([5]; WST1, 24 hours at 37° C.) | viability at 125 µM ([6]; Escherichia coli, 4 h) | viability at 125 µM ([7]; Escherichia coli, 4 h) | other results
COC(=O)[C@H](NC(=O)CC[C@@H](C)[C@H]1CCC2C3CC[C@@H]4C[C@@H](NCCCNCCCCNCCCN)CC[C@]4(C)C3C[C@H](O)[C@@]21C)C(C)C (stereo partly drawn) [Compound S052, methyl ((4R)-4-((3S,5R,10S,12S,13R,17R)-3-((3-((4-((3-aminopropyl)amino)butyl)amino)propyl)amino)-12-hydroxy-10,13-dimethylhexadecahydro-1H-cyclopenta[a]phenanthren-17-yl)pentanoyl)-D-valinate] | 3.12 µM and 2 µg/mL | 25 µM and 16 µg/mL | 12.5 µM and 8 µg/mL | 12.5 µM and 8 µg/mL | good toxicity results | 50 µM and 34 µg/mL | 50 µM | both anti-persister and anti-bacterial activities |  |  |  |  |  |  | viability at 62.5 µM ([6]; Escherichia coli, 4 h): 0%; viability at 62.5 µM ([7]; Escherichia coli, 4 h): 0%
COC(=O)[C@H](NC(=O)CC[C@@H](C)[C@H]1CCC2C3C(CC[C@@]21C)[C@@]1(C)CC[C@H](NCCCNCCCN)C[C@H]1C[C@H]3O)C(C)C (stereo partly drawn) [Compound S019, methyl ((4R)-4-((3S,5S,7R,10S,13R,17R)-3-((3-((3-aminopropyl)amino)propyl)amino)-7-hydroxy-10,13-dimethylhexadecahydro-1H-cyclopenta[a]phenanthren-17-yl)pentanoyl)-D-valinate] |  |  |  |  |  |  | 97.1 µM | very potent anti-persister activity | 25* μM and 16* μg/mL | 12.5* μM and 8* μg/mL | 12.5* μM and 8* μg/mL | 60.09 µg/mL (≈ 97.1 µM) |  |  | Minimum inhibitory concentration S. aureus ATCC25923 [1]: 6.25* μM and 4* μg/mL; Persister cell survival rate 96 h ([6]; concentration used 250 μM): 0.0%; Non-persister cell survival rate 96 h ([7]; concentration used 250 μM): 4.0%
COC(=O)[C@@H](NC(=O)CC[C@@H](C)[C@H]1CCC2C3C(CC[C@@]21C)[C@@]1(C)CC[C@H](NCCCNCCNCCCN)C[C@H]1C[C@H]3O)C(C)C (stereo partly drawn) [Compound S013, methyl ((4R)-4-((3S,5S,7R,10S,13R,17R)-3-((3-((2-((3-aminopropyl)amino)ethyl)amino)propyl)amino)-7-hydroxy-10,13-dimethylhexadecahydro-1H-cyclopenta[a]phenanthren-17-yl)pentanoyl)-L-valinate] | 6.25 µM and 4 µg/mL | 12.5 µM and 8 µg/mL | 6.25 µM and 4 µg/mL | 25 µM and 16 µg/mL | good toxicity results | 96.3 µM and 63.7 µg/mL | 96.3 µM | both anti-persister and anti-bacterial activities |  |  |  |  |  |  | viability at 250 µM ([6]; Escherichia coli, 4 h, read-out: Persister cell survival rate 96 h, concentration used 250 μM, 4 hours treatment): 0%; viability at 250 µM ([7]; Escherichia coli, 4 h, read-out: Non-persister cell survival rate 96 h, concentration used 250 μM, 4 hours treatment): 0%
CC[C@@H](C)[C@H](NC(=O)CC[C@@H](C)[C@H]1CC[C@H]2[C@@H]3[C@H](O)C[C@@H]4C[C@@H](NCCCNCCCCNCCCN)CC[C@]4(C)[C@H]3CC[C@]12C)C(=O)OC [Compound S044, methyl (2S,3R)-2-((4R)-4-((3S,5S,7R,10S,13R,17R)-3-((3-((4-((3-aminopropyl)amino)butyl)amino)propyl)amino)-7-hydroxy-10,13-dimethylhexadecahydro-1H-cyclopenta[a]phenanthren-17-yl)pentanamido)-3-methylpentanoate] | 6.25 µM and 4 µg/mL | 6.25 µM and 4 µg/mL | 6.25 µM and 4 µg/mL | 12.5 µM and 8 µg/mL | good toxicity results | 52.4 µM and 36.9 µg/mL | 52.4 µM | both anti-persister and anti-bacterial activities |  |  |  |  |  |  | viability at 62.5 µM ([6]; Escherichia coli, 4 h): 0%; viability at 62.5 µM ([7]; Escherichia coli, 4 h): 0%
COC(=O)[C@H](NC(=O)CC[C@@H](C)[C@H]1CCC2C3C(CC[C@@]21C)[C@@]1(C)CC[C@H](NCCCNCCCN)C[C@H]1C[C@H]3O)C(C)C (stereo partly drawn) [Compound S048, methyl ((4R)-4-((3S,5S,7R,10S,13R,17R)-3-((3-((3-aminopropyl)amino)propyl)amino)-7-hydroxy-10,13-dimethylhexadecahydro-1H-cyclopenta[a]phenanthren-17-yl)pentanoyl)-D-valinate] |  |  |  |  |  |  |  | both anti-persister and anti-bacterial activities | 25* μM and 16* μg/mL | 6.25* μM and 4* μg/mL | 12.5* μM and 8* μg/mL | 60.09 µg/mL (≈ 97.1 µM) |  |  | Minimum inhibitory concentration S. aureus ATCC25923 [1]: 6.25* μM and 4* μg/mL; IC50 [5, 10]: 97.1 µM; IC50 [5, 11]: 97.1 µM; Persister cell survival rate 96 h ([6]; concentration used 125 μM): 0.0%; Non-persister cell survival rate 96 h ([7]; concentration used 125 μM): 0.0%
COC(=O)[C@H](Cc1ccccc1)NC(=O)CC[C@@H](C)[C@H]1CCC2C3C(CC[C@@]21C)[C@@]1(C)CC[C@H](NCCCNCCCCNCCCN)C[C@H]1C[C@H]3O (stereo partly drawn) [Compound S014, methyl ((4R)-4-((3S,5S,7R,10S,13R,17R)-3-((3-((4-((3-aminopropyl)amino)butyl)amino)propyl)amino)-7-hydroxy-10,13-dimethylhexadecahydro-1H-cyclopenta[a]phenanthren-17-yl)pentanoyl)-L-phenylalaninate] | 3.12 µM and 2 µg/mL | 12.5 µM and 8 µg/mL | 6.25 µM and 4 µg/mL | 25 µM and 16 µg/mL | good toxicity results | 77.6 µM and 57.3 µg/mL | 77.6 µM | both anti-persister and anti-bacterial activities |  |  |  |  | 0% | 0% | 
COC(=O)[C@H](NC(=O)CC[C@@H](C)[C@H]1CCC2C3C(CC[C@@]21C)[C@@]1(C)CC[C@H](NCCCNCCCN)C[C@H]1C[C@H]3O)C(C)C (stereo partly drawn) [Compound S047, methyl ((4R)-4-((3S,5S,7R,10S,13R,17R)-3-((3-((3-aminopropyl)amino)propyl)amino)-7-hydroxy-10,13-dimethylhexadecahydro-1H-cyclopenta[a]phenanthren-17-yl)pentanoyl)-D-valinate] | 6.25 µM and 4 µg/mL |  |  |  |  |  |  | both anti-persister and anti-bacterial activities | 12.5* μM and 8* μg/mL | 12.5* μM and 8* μg/mL | 12.5* μM and 8* μg/mL | 57.61 µg/mL (≈ 93.1 µM) | 0% | 0% | IC50 [5, 10]: 93.1 µM; IC50 [5, 11]: 93.1 µM
COC(=O)[C@H](Cc1ccc(O)cc1)NC(=O)CC[C@@H](C)[C@H]1CCC2C3C(CC[C@@]21C)[C@@]1(C)CC[C@H](NCCCNCCNCCCN)C[C@H]1C[C@H]3O (stereo partly drawn) [Compound S042, methyl ((4R)-4-((3S,5S,7R,10S,13R,17R)-3-((3-((2-((3-aminopropyl)amino)ethyl)amino)propyl)amino)-7-hydroxy-10,13-dimethylhexadecahydro-1H-cyclopenta[a]phenanthren-17-yl)pentanoyl)-L-tyrosinate] | 6.25 µM and 4 µg/mL | 25 µM and 16 µg/mL | 12.5 µM and 8 µg/mL | 25 µM and 16 µg/mL | good toxicity results | 51.4 µM and 37.3 µg/mL | 51.4 µM | not as good on persister cells |  |  |  |  | 0.1% | 0% | activity on non-persister cells (in words) ([7]; E. coli non-persister cells, Table 8 conditions): good activity on non-persister cells
